Measured values from the NIST ThermoML archive (doi:10.1016/j.jct.2013.01.010).
Numbers after ± are expanded uncertainties.

Settings: 101.33 kPa, Liquid; for speed of sound: Sing-around technique in a fixed-path interferometer; for mass density: Vibrating tube method

Row | SMILES | speed of sound (293.15 K) | mass density (293.15 K) | speed of sound (298.15 K) | mass density (298.15 K) | speed of sound (303.15 K) | mass density (303.15 K) | speed of sound (308.15 K) | mass density (308.15 K)
1 | CCn1cc[n+](C)c1.F[B-](F)(F)F [1-ethyl-3-methylimidazolium tetrafluoroborate] | 1631 ± 2.4 m/s | 1283.89 ± 1.5 kg/m3 | 1619.4 ± 2.4 m/s | 1279.91 ± 1.5 kg/m3 | 1607.6 ± 2.4 m/s | 1276.26 ± 1.5 kg/m3 | 1596.3 ± 2.4 m/s | 1272.07 ± 1.4 kg/m3
2 | CC(C)=O [acetone] | 1186 ± 1.2 m/s | 789.987 ± 0.15 kg/m3 | 1163.8 ± 1.2 m/s | 784.405 ± 0.15 kg/m3 | 1141.4 ± 1.2 m/s | 778.871 ± 0.15 kg/m3 | 1119.1 ± 1.2 m/s | 773.066 ± 0.15 kg/m3
3 | C[S+](C)[O-] [dimethyl sulfoxide] | 1503.2 ± 1.2 m/s | 1100.43 ± 0.12 kg/m3 | 1486.3 ± 1.2 m/s | 1095.42 ± 0.12 kg/m3 | 1469.2 ± 1.2 m/s | 1090.41 ± 0.12 kg/m3 | 1452.7 ± 1.2 m/s | 1085.39 ± 0.12 kg/m3
